Test systems include HL-60(TB) leukemia; EKVX NSCLC; UACC-257 melanoma; CCRF-CEM leukemia; CAKI-1 renal; ACHN renal; MOLT-4 leukemia; RPMI-8226 leukemia; U251 CNS; TK-10 renal.
Test in all cases: NCI-60 cell line screen, 48 h

SMILES strings stand for the structures.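 Method: 48-hour compound exposure of cells in 96-well plates, five concentrations, linear interpolation of endpoints. GI50 is the concentration that inhibits growth by half. Definition used: TGI = concentration required for complete inhibition of growth.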

Regarding `COc1cc(-c2nnc3n2NC=C(C(=O)O)S3)cc(OC)c1OC`, the TGI with HL-60(TB) leukemia was more than 73.4 µM; in the assay on EKVX NSCLC, more than 100 µM; with UACC-257 melanoma it was more than 100 µM; in the assay with CCRF-CEM leukemia, more than 67.5 µM; in the assay with CAKI-1 renal it was more than 100 µM; with ACHN renal, more than 100 µM. The TGI in the assay with MOLT-4 leukemia was more than 100 µM; with RPMI-8226 leukemia it was more than 68.7 µM; in the assay on U251 CNS, more than 100 µM; in the assay with TK-10 renal it was more than 100 µM.

Turning to `CCOC(=O)C(C)(c1c(C)[nH]c2ccccc12)c1c(C)[nH]c2ccccc12`, the TGI with HL-60(TB) leukemia is 37.6 µM; in the assay on EKVX NSCLC, more than 100 µM; in the assay on UACC-257 melanoma, 28 µM; in the assay on CCRF-CEM leukemia, 58 µM; in the assay on CAKI-1 renal, 45.4 µM; in the assay on ACHN renal, 56.6 µM. The TGI in the assay with MOLT-4 leukemia was found to be 42.9 µM; with RPMI-8226 leukemia, 46.2 µM; in the assay with U251 CNS it was 33.4 µM; in the assay with TK-10 renal, 45.6 µM.

Regarding `CS(=O)(=O)CS(=O)(=O)OCCCl`, the TGI in the assay with HL-60(TB) leukemia turned out to be 541 µM; in the assay on EKVX NSCLC, 1080 µM; with UACC-257 melanoma, 808 µM; in the assay with CCRF-CEM leukemia, 687 µM; in the assay with CAKI-1 renal it was 799 µM; with ACHN renal, 524 µM. Besides, the TGI in the assay on MOLT-4 leukemia worked out at 629 µM; in the assay on RPMI-8226 leukemia, 3170 µM; with U251 CNS, 664 µM; in the assay on TK-10 renal it was 1280 µM.

With `Cc1c2c(C(N)=O)nccc2c(C)c2c1c1ccccc1n2Cc1ccccc1`, the TGI is 47 µM in the assay on HL-60(TB) leukemia; more than 100 µM in the assay on EKVX NSCLC; more than 100 µM with UACC-257 melanoma; 62.6 µM in the assay with CCRF-CEM leukemia; 59 µM in the assay on CAKI-1 renal; 37.5 µM in the assay with ACHN renal. The TGI in the assay on MOLT-4 leukemia came to 62.9 µM; with RPMI-8226 leukemia, 61.2 µM; in the assay on U251 CNS, 24.9 µM; in the assay on TK-10 renal, 35.5 µM.

For the compound `CC1CCC(C(C)(C)c2ccccc2)C(=O)C1` (centres undefined), the TGI in the assay on HL-60(TB) leukemia, in the assay on EKVX NSCLC, in the assay with UACC-257 melanoma, in the assay on CCRF-CEM leukemia, in the assay on CAKI-1 renal and in the assay on ACHN renal was more than 100 µM each time. Also, the TGI in the assay with MOLT-4 leukemia, in the assay on RPMI-8226 leukemia, in the assay on U251 CNS and with TK-10 renal was more than 100 µM throughout.

`NC(=O)c1cn(Cc2ccccc2)c(=O)n1Cc1ccccc1`: the TGI with HL-60(TB) leukemia, with EKVX NSCLC, in the assay with UACC-257 melanoma, in the assay on CCRF-CEM leukemia, in the assay with CAKI-1 renal and in the assay on ACHN renal was more than 100 µM in each case. For the same compound, the TGI in the assay with MOLT-4 leukemia, in the assay on RPMI-8226 leukemia, in the assay with U251 CNS and in the assay with TK-10 renal was more than 100 µM in each case.

For the compound `CCOc1ccc(N=Cc2c3ccccc3nc3ccccc23)cc1`, the TGI in the assay on HL-60(TB) leukemia is 77.2 µM; with EKVX NSCLC, more than 100 µM; in the assay with UACC-257 melanoma, more than 100 µM; in the assay on CCRF-CEM leukemia, 24 µM; in the assay on CAKI-1 renal it was more than 100 µM; in the assay on ACHN renal, more than 100 µM. For the same compound, the TGI in the assay with MOLT-4 leukemia, in the assay on RPMI-8226 leukemia, in the assay on U251 CNS and in the assay on TK-10 renal was more than 100 µM throughout.

With `COC(=O)[C@]12CC[C@@H](C)[C@H](C)[C@@H]1C1=CC[C@@H]3[C@@]4(C)C(C=O)=C[C@@](C)(COC(=O)c5ccco5)[C@@H]4[C@H](O)C[C@@]3(C)[C@]1(C)CC2`, the GI50 in the assay on HL-60(TB) leukemia is 2.33 µM; in the assay with EKVX NSCLC it was 3.02 µM; in the assay with UACC-257 melanoma, 0.263 µM; in the assay with CCRF-CEM leukemia it was 2.54 µM; with CAKI-1 renal, 2.86 µM; in the assay with ACHN renal, 1.13 µM. The GI50 in the assay on MOLT-4 leukemia is 2.29 µM; in the assay with RPMI-8226 leukemia, 1.76 µM; in the assay with U251 CNS it was 1.41 µM; in the assay on TK-10 renal, 2.04 µM. Moreover, the TGI with HL-60(TB) leukemia was 5.84 µM; in the assay with EKVX NSCLC it was 13.8 µM; in the assay with UACC-257 melanoma it was 0.997 µM; in the assay on CCRF-CEM leukemia, 7.58 µM; in the assay with CAKI-1 renal, more than 100 µM; in the assay on ACHN renal, 3.78 µM. In addition, the TGI is 7.5 µM in the assay with MOLT-4 leukemia, 6.7 µM with RPMI-8226 leukemia, 2.91 µM in the assay on U251 CNS and 9.32 µM in the assay on TK-10 renal.

For the compound `COc1cc2c3c(n(CCCN(CCO)CCO)c(=O)c2cc1OC)-c1cc2c(cc1C3=O)OCO2`, the GI50 in the assay with HL-60(TB) leukemia is less than 0.01 µM; in the assay with EKVX NSCLC, 0.887 µM; in the assay on UACC-257 melanoma it was 1.55 µM; in the assay on CCRF-CEM leukemia, less than 0.01 µM; in the assay on CAKI-1 renal, less than 0.01 µM; in the assay on ACHN renal, less than 0.01 µM. The GI50 is less than 0.01 µM in the assay on MOLT-4 leukemia, less than 0.01 µM with RPMI-8226 leukemia, less than 0.01 µM in the assay with U251 CNS and 1.23 µM in the assay on TK-10 renal. The TGI with HL-60(TB) leukemia was 2.29 µM; with EKVX NSCLC, 13.6 µM; in the assay on UACC-257 melanoma, more than 22.5 µM; in the assay on CAKI-1 renal, less than 0.018 µM; in the assay with ACHN renal, 0.0855 µM; in the assay on MOLT-4 leukemia, less than 0.01 µM. For the same compound, the TGI in the assay with RPMI-8226 leukemia turned out to be 0.207 µM; in the assay with U251 CNS it was 0.628 µM; in the assay with TK-10 renal, 6.02 µM.

As to `NCCCOc1cc2ccccc2cc1C(=O)NCCCOc1cc2ccccc2cc1C(=O)Nc1ccc(Cl)cc1O`, the GI50 in the assay on HL-60(TB) leukemia is 0.512 µM; in the assay with EKVX NSCLC it was 0.74 µM; in the assay on UACC-257 melanoma, 1.23 µM; in the assay on CCRF-CEM leukemia, 0.334 µM; in the assay with CAKI-1 renal, 0.829 µM; in the assay on ACHN renal it was 0.387 µM. The GI50 was 0.314 µM in the assay on MOLT-4 leukemia, 0.578 µM in the assay on RPMI-8226 leukemia, 0.187 µM with U251 CNS and 0.583 µM with TK-10 renal. For the same compound, the TGI in the assay with HL-60(TB) leukemia worked out at 2.2 µM; in the assay on EKVX NSCLC, 2.43 µM; in the assay on UACC-257 melanoma, 2.59 µM; with CCRF-CEM leukemia, 11.5 µM; with CAKI-1 renal it was 2.42 µM; in the assay with ACHN renal, 1.44 µM. Moreover, the TGI in the assay with MOLT-4 leukemia stood at 1.54 µM; with RPMI-8226 leukemia, 7.09 µM; with U251 CNS, 0.35 µM; with TK-10 renal, 1.26 µM.

Source of the values: PubChem BioAssay (NCI).
